Test results: patent US20030186954A1, “Estriol to treat and prevent cardiovascular disease” (priority 2002, published 2003)
Like-named read-outs stand apart in the source and are kept apart here.

Assays:
[1] = system: coronary arteries of ovariectomized female rhesus monkeys (serotonin + U46619 induced vasospasm); test: Drug-induced (serotonin + U46619) coronary vasospasm in ovariectomized rhesus monkeys, angiography; type: in vivo, rhesus monkeys (Macaca mulatta); conditions: for Monkeys suffering a vasospasm during the study: estriol cream treated ovariectomized monkeys, 12 step intracoronary serotonin+U46619 injection protocol
Procedure: The monkeys were entered into the study no less than 3 months after ovariectomy.
Angiography at the Dotter Institute, after overnight fasting, began with preanesthesia with ketamine (10 mg/kg body weight intramuscular), intubation with an endotracheal tube and a light surgical plane of anesthesia with isoflurane (induced at 1.5% to 3% maintained at 0.75% to 1.25%), vaporized with 33% nitrous oxide and 67% oxygen, or with 100% oxygen. Bilateral femoral intraarterial 3F catheters allowed for coronary catheterization and continuous recording of systemic arterial blood pressure and heart rate, which were maintained close to the initial anesthetic value for each monkey. Intravenous heparin (1,000 U) was injected, and up to 120 ml of pyruvated Ringer's solution and 0 to 50 ml of dextran solution were used (as needed) to maintain diastolic blood pressure ≧60 mm Hg. A heating pad assisted in maintenance of a body temperature decrease ≦2° C. of preanesthesia body temperature (monitored by rectal thermometer). An electrocardiogram (ECG) recorded on a Gould eight-channel recorder, cutaneous arterial oxygen saturation, respiratory rate and end-tidal CO2 were also monitored.
Entire experiments were recorded on videotape (with episodic fluoroscopic imaging and continuous voice annotation) to permit computerized quantitative coronary angiography. […]
Placement of the 3F catheter (except as noted later) was adjusted to provide sufficient filling with radio-opaque contrast medium, limited reflux and isolation of a branch of the coronary arterial tree. […] Fluoroscopic images were recorded on film using an OEC model 9800 digital x-ray system with fluoroscopic C-arm, digitally recorded, and evaluated in subsequent analysis. All procedures including a brief 0.2 ml injection of Hexabrix for optimal quantitative angiography were recorded on videotape for subsequent computer analysis. […]
After 4 weeks of daily treatment with 0.2 mg/kg of the estriol topical cream, the monkeys were studied by coronary catheterization, and reactivity was assessed by injection of serotonin (100 μM) and U46619 (1 μM).

[2] = Levels of estriol in saliva of human volunteers treated with skin cream; type: in vivo; conditions: topical; for concentration at 24 h: human volunteers, 24 hours after second application, read-out: Salivary concentration of estriol (group average)
Procedure: Four human volunteers applied one of three estriol skin cream formulations in a base of polyethylene glycol, sorbitol, and water. The formulations were as described above in Example 3, except that one formulation contained 0.1% estriol, a second formulation contained 0.5% estriol, and a third contained 1% estriol. Each volunteer applied […] of one of the formulations daily for 2 days for a total applied dosage of 4 mg, 20 mg, and 40 mg of estriol, respectively.
Concentrations of estriol in saliva was measured 24 hours after the second application of the estriol cream formulations. The group that applied the 0.1% estriol averaged a salivary concentration of about 300 pg/ml. The 0.5% group averaged about 1500 pg/ml. The 1%group averaged about 4000 pg/ml.
In addition, salivary concentration of estriol was measured ten minutes following the application of 20 mg of estriol in skin cream. A concentration of 10 ng/ml was found, indicating rapid absorption.

[3] = Steroid levels in plasma and urine of estriol cream treated monkeys; conditions: urine collected just prior to cardiac catheterization after 4 weeks daily 0.3% estriol topical cream; n = 5

- concentration at 24 h ([2]; 0.1% estriol skin cream, 4 ml daily for 2 days (4 mg)): ~0.3 ng/mL
- concentration at 24 h ([2]; 0.5% estriol skin cream, 4 ml daily for 2 days (20 mg)): ~1.5 ng/mL
- concentration at 24 h ([2]; 1% estriol skin cream, 4 ml daily for 2 days (40 mg)): ~4 ng/mL
- concentration at 10 min ([2]; human, ten minutes following application of 20 mg of estriol in skin cream, read-out: Salivary concentration of estriol): 10 ng/mL
- E3 absorbed, urine (total) [3]: ***2412 +/− 316 (n = 5) ng/ml
SMILES: C[C@]12CC[C@@H]3c4ccc(O)cc4CC[C@H]3[C@@H]1C[C@@H](O)[C@@H]2O [Estriol]
- Monkeys suffering a vasospasm during the study [1]: None of the monkeys
- Monkeys suffering a vasospasm during the study ([1]; listed as E3): none of the E3 treated monkeys showed a vasospasm
- Vasospasm criteria met (incidence) ([1]; ovariectomized monkeys, 4 weeks daily 0.3% estriol topical cream (0.2 mg/kg), intracoronary serotonin 100 μM + U46619 1 μM, criteria <33% of control diameter for >5 minutes): 0/6
